Laboratory results taken from US9987242B2, “Treatment of Levodopa-induced Dyskinesias” (NORTHWESTERN UNIVERSITY, priority 2015, dated 2018).
“Also recorded” adds a separate entry of the source.

How the values were obtained:
Type in all cases: cell-based, mice
[1] = tested on: NMDAR-mediated Ca2+ transients in dSPN spines; assay: NMDAR-mediated Ca2+ transients in dSPN spines, two-photon glutamate uncaging and Fluo-5F imaging
Text: dSPNs were identified by somatic tdTomato expression using two-photon excited fluorescence that was induced and detected using a Prairie Ultima laser scanning microscope system (Prairie Technologies). Fluorescent and bright-field images were viewed in register using a Dodt contrast detector system. Cells were patched using video microscopy with a Hitachi CCD camera and an Olympus 60×/1.0 NA lens. Green (Fluo 5F) and red (tdTomato; Alexa 568) signals were acquired using 810 nm excitation (Verdi/Mira laser). Following patch rupture the internal solution was allowed to equilibrate for 10-15 minutes before imaging. High magnification z-series of dendrite regions 50-100 μm from the soma were acquired with 0.072 μm2 pixels with 4 μs dwell time and 0.3 μm z-steps. […]
dSPNs were loaded with 25 μM Alexa 568 and 300 μM Fluo 5F via the internal recording solution, containing (in mM): 120 CsMeSO3, 5 NaCl, 10 TEA-Cl, 10 HEPES, 5 QX-314, 4 ATP-Mg and 0.3 GTP-Na. […] Changes in Fluo 5F fluorescence were averaged from 3 trials and measured as ΔF/Fo.
Glutamate uncaging was achieved using a Verdi/Mira (Coherent Laser Group, Santa Clara, Calif.) (Plotkin et al., 2014). […] Photolysis power was tuned via a third Pockels cell modulator (Con Optics, Danbury, Conn.) to achieve uEPSCs≤5 pA. uEPSC amplitudes were measured from averaged (3-5 repetitions) traces. […]

[2] = tested on: dSPN glutamatergic synapses; assay: Spike-timing-dependent LTP induction (pre-post pairing) in dSPNs, ex vivo slices; conditions: VU10010 5 μM
[3] = tested on: dSPN glutamatergic synapses; assay: Depotentiation of established LTP by low-frequency stimulation (2 Hz, 10 min) in dSPNs; conditions: VU10010 5 μM

Cc1cc(C)c2c(N)c(C(=O)NCc3ccc(Cl)cc3)sc2n1 [VU10010]
decrease of NMDAR-mediated Ca2+ transients ([1]; SKF81297 3 μM, then muscarine and the M4R PAM co-applied, n=12): ~40% | NMDAR-mediated Ca2+ transients ([1]; VU10010 5 μM, dSPNs from LID mice): reduced NMDAR-mediated Ca2+ transients | STDP LTP induction in dSPNs ([2]; dyskinetic (LID) mice): blocked the induction of STDP LTP; also recorded: LTP was disrupted | STDP LTP induction in dSPNs ([2]; naive mice): disrupted STDP LTP induction; also recorded: LTP induction was also blocked | depotentiation by LFS in dSPNs ([3]; dyskinetic (LID) mice, no D1R antagonist): restored depotentiation | depotentiation by LFS in dSPNs ([3]; naive mice): Depotentiation also was achieved; also recorded: promoted the reversal of established LTP
